In PubChem BioAssay AID1963424 (Molecular Pharmacology Branch, DTP, NCI, 2024):
Several values for one entry are separate records, joined by “and”; a condition that tells them apart may be missing. Equal values may be shown once.

System: 327498-153-R-J2-PDC complex spheroid growth, % test/control
Experiment: Anticancer human tumor 327498-153-R-J2-PDC patient-derived uterine carcinosarcoma cell line growth inhibition [Asc]
Details: for viability, T/C: stronger effect = lower value
Experimental: Multicellular complex tumor spheroid response to apoptosis pathway targeting inhibitors Alrizomadlin, Pelcitoclax, and Dasminapant in combination with a variety of drugs and investigational agents in selected tumor cell lines
The MDM2 inhibitor alrizomadlin, the Bcl-2/Bcl-xL inhibitor pelcitoclax, and the IAPs inhibitor dasminapant were evaluated both individually and in combination with standard of care and investigational anticancer small molecules within a complex spheroid model of solid tumors. . Complex spheroids include a stromal component modeled by human endothelial cells (HUVEC) and fibroblasts modeled by human mesenchymal stem cells (MSCs). The concentration ranges selected for each drug and investigational agent were based upon clinically achievable concentrations if the clinical Cmax of the agent was known.
Compounds. The drugs and investigational agents: alrizomadlin (APG-115; NSC831270), pelcitoclax (APG-1252; NSC835773), dasminapant (APG-1387;NSC834197), TAK-243 (NSC785004), copanlisib (NSC809693), olaparib (NSC753686), talazoparib (NSC767125), cobimetinib (NSC 768068), eltanexor (KPT-8602, NSC 794443), abemaciclib (NSC 768073), sotorasib (NSC818433), adagrasib (NSC 831453), MRTX-1133 (NSC 836407), Iadademestat (ORY1001, NSC 806812), and RMC-4630 (NSC839698), were obtained from the NCI Developmental Therapeutics Program Chemical Repository. The FDA-approved anticancer drug set is available from the Developmental Therapeutics Program at https://dtp.cancer.gov/organization/dscb/obtaining/available plates.htm. […] The stock solutions were prepared in dimethyl sulfoxide (DMSO, Sigma-Aldrich, St. Louis, MO, cat. D2650) at 800-fold the tested concentration and stored at -70 degrees C prior to their use. All drugs and investigational agents were tested over a range starting from a high concentration at or near the clinical Cmax and decreasing in half-log increments. If the clinical Cmax for an agent had not been determined, the highest concentration tested was 10 microM.
The patient-derived cancer (PDC) cell lines include five colon adenocarcinomas: 186277-243-T-J2-PDC, 616215-338-R-J1-PDC, 439559-082-T-J2-PDC, 463943-066-T-J2-PDC, and 519858-162-T-J1-PDC; three pancreatic carcinomas: 323965-272-R-J2-PDC, 521955-158-R6-J3-PDC, and 521955-158-R2-J5-PDC; two uterine sarcomas: 327498-152-R-J2-PDC and 993429-296-R-J1-PDC; two rhabdomyosarcomas: 755483-174-R-J1-PDC and 772245-204-R-J1-PDC; two soft tissue sarcomas: 126254-015-R-J1-PDC and 494315-158-R-J1-PDC; two malignant fibrous histiocytomas: 317291-083-R-J1-PDC and 596521-263-R-J1-PDC; two breast carcinomas: 171881-019-R-J1-PDC and 885512-296-R-J2-PDC; and one ovarian carcinoma: 6556581-035-R-J-PDC were obtained from the NCI PDMR, (https://pdmr.cancer.gov). The established cell lines HSSY-2 synovial sarcoma (RRID:CVCL 8719), SYO-1 synovial sarcoma (RRID:CVCL_7146), MPNST malignant peripheral neural sheath tumor were obtained from the Sloan Kettering Institute. The following established cell lines were purchased from the American Type Culture Collection (ATCC, Manassas, VA), Sor the received from the NCI repository:, PANC-1 pancreatic carcinoma (CRL-1469, RRID:CVCL_0480), OVCAR-5 ovarian carcinoma (RRID:CVCL_1628), OVCAR-8 ovarian carcinoma (RRID:CVCL_1629), , MCF-7 breast carcinoma (CRL-12584, RRID:CVCL_0031), MDA-MB-231 breast carcinoma (CRL-12532, RRID:CVCL_0062), NCI-H1876 small cell lung carcinoma (CRL-5902, RRID:CVCL_1503), NCI-H510A small cell lung carcinoma (HTB-184, RRID:CVCL_1565), NCI-H1417 (CRL-5869, RRID:CVCL_1469), and NCI-H196 small cell lung carcinoma (CRL-5823, RRID:CVCL_1509). Dr. Peter Houghton (Greehey Children's Cancer Research Institute, University of Texas Health Science Center, San Antonio, TX) provided Rh-18 rhabdomyosarcoma (RRID:CVCL_1659). Pooled donor human umbilical vein endothelial cells (HUVEC, Lonza, cat. CC-2519) and human mesenchymal stem cells (hMSC, Lonza, cat. PT-2501) were purchased from Lonza (Walkersville, MD).
Cell Culture. […]
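Further: spheroids exposed to compound for 7 days after 3 days of growth.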
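Wherever viability, T/C is given: 100% = DMSO vehicle control wells.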

IC50 (curve of compound) | IC50 (compound alone, run of 09/27/2022) | IC50 (compound alone, run of 10/03/2022) [nM] | Structure (SMILES) | viability, T/C (compound 0.0316 µM) | viability, T/C (compound 0.1 µM) | viability, T/C (compound 0.316 µM) | viability, T/C (compound 1 µM) | viability, T/C (compound 3.16 µM) | viability, T/C (compound 10 µM) | viability, T/C (compound 0.00949 µM) | viability, T/C (compound 0.03 µM) | viability, T/C (compound 0.0949 µM) | viability, T/C (compound 0.3 µM) | viability, T/C (compound 0.949 µM) | viability, T/C (compound 3 µM) | viability, T/C (compound 0.00316 µM) | viability, T/C (compound 0.01 µM)
> 10000 nM and 8780 nM |  |  | C#Cc1c(F)ccc2cc(O)cc(-c3ncc4c(N5CC6CCC(C5)N6)nc(OCC56CCCN5CC(F)C6)nc4c3F)c12 (stereo unspecified) | 108% and 96.6% and 89.6% | 101% and 100% and 94% | 101% and 82.7% and 90.7% | 82.9% and 72.4% and 78.3% | 69.9% and 64.9% and 68.1% | 58% and 47.4% and 53.3% |  |  |  |  |  |  |  | 
654 nM and 1240 nM and 1270 nM |  |  | C=C(F)C(=O)N1CCN(c2nc(OCC3CCCN3C)nc3c2CCN(c2cccc4cccc(Cl)c24)C3)CC1CC#N (stereo unspecified) | 68.8% and 82.4% and 85% | 61.8% and 69.6% and 74.7% | 56.1% and 67.6% and 66% | 48.2% and 59.2% and 62.2% | 19.4% and 14.3% and 24.8% | 0.22% and 0.23% and 0.25% |  |  |  |  |  |  |  | 
> 10000 nM |  |  | C=CC(=O)N1CCN(c2nc(=O)n(-c3c(C)ccnc3C(C)C)c3nc(-c4c(O)cccc4F)c(F)cc23)C(C)C1 (stereo unspecified) | 79% and 84.1% and 96.8% | 81.7% and 85.2% and 87.5% | 63.5% and 71.4% and 76% | 71.2% and 69.4% and 84.9% | 66.3% and 67.2% and 77.7% | 60.9% and 59.4% and 66% |  |  |  |  |  |  |  | 
174 nM and 252 nM | 211 nM [middle of 13 runs] |  | CCN1C(C(=O)NC23CCC(C(=O)O)(CC2)CC3)C(c2cccc(Cl)c2F)C2(C(=O)Nc3cc(Cl)ccc32)C12CCCCC2 (stereo unspecified) |  |  |  |  |  |  | 90.4% and 97.6% | 88.7% [middle of 15 runs] | 74.7% [middle of 15 runs] | 40.5% [middle of 15 runs] | 11.1% [middle of 15 runs] | 4% [middle of 15 runs] |  | 
> 1000 nM |  |  | CCN1CCN(Cc2ccc(Nc3ncc(F)c(-c4cc(F)c5nc(C)n(C(C)C)c5c4)n3)nc2)CC1 | 78% and 88.9% and 94.2% | 73.7% and 77.4% and 81.4% | 70.5% and 69.2% and 73.2% | 63.1% and 63.3% and 75.3% |  |  |  |  |  |  |  |  | 95% and 98.3% and 99.9% | 82.9% and 85.2% and 108%
> 1000 nM |  | > 1000 | CNC(C)C(=O)NC1CN(S(=O)(=O)c2cccc(S(=O)(=O)N3CCC4CCC(C(=O)NC(c5ccccc5)c5ccccc5)N4C(=O)C(NC(=O)C(C)NC)C3)c2)CCC2CCC(C(=O)NC(c3ccccc3)c3ccccc3)N2C1=O (stereo unspecified) | 98.1% [middle of 15 runs] | 99.2% [middle of 15 runs] | 99.9% [middle of 15 runs] | 96.2% [middle of 15 runs] |  |  |  |  |  |  |  |  | 95.8% and 104% | 96.8% [middle of 15 runs]
99.9 nM and 131 nM and 140 nM |  |  | COc1c(OCCCN2CCOCC2)ccc2c3n(c(=NC(=O)c4cnc(N)nc4)nc12)CCN3 | 71.2% and 78.3% and 85.6% | 51.4% and 57.8% and 60.5% | 23.9% and 27.6% and 26.7% | 6.91% and 7.65% and 9.2% |  |  |  |  |  |  |  |  | 93.8% and 96.5% and 105% | 92% and 91.4% and 97.5%
